According to the NIST ThermoML archive (doi:10.1016/j.jct.2015.04.024):

Assay: mn = molality of the nth substance listed, in mol/kg
Details: 75 kPa, Liquid, Buoyancy - hydrostatic balance with magnetic suspension - one sinker

NCC(=O)O [2-aminoacetic acid] + O
Details | mass density [kg/m3]
275.63 K, m1 = 0.02975 | 1000.98
275.63 K, m1 = 0.03917 | 1001.3
275.63 K, m1 = 0.05033 | 1001.69
275.63 K, m1 = 0.0596 | 1002
275.63 K, m1 = 0.07025 | 1002.37
275.63 K, m1 = 0.07948 | 1002.68
275.63 K, m1 = 0.089 | 1003.01
275.63 K, m1 = 0.09846 | 1003.34
276.13 K, m1 = 0.03055 | 1001.01
276.13 K, m1 = 0.04004 | 1001.34
276.13 K, m1 = 0.05063 | 1001.71
276.13 K, m1 = 0.05984 | 1002.02
276.13 K, m1 = 0.06886 | 1002.32
276.13 K, m1 = 0.08159 | 1002.76
276.13 K, m1 = 0.08976 | 1003.05
276.13 K, m1 = 0.1001 | 1003.39
276.69 K, m1 = 0.02962 | 1000.98
276.69 K, m1 = 0.03964 | 1001.32
276.69 K, m1 = 0.04889 | 1001.63
276.69 K, m1 = 0.06028 | 1002.02
276.69 K, m1 = 0.06972 | 1002.34
276.69 K, m1 = 0.07961 | 1002.68
276.69 K, m1 = 0.0885 | 1002.98
276.69 K, m1 = 0.1008 | 1003.39
277.12 K, m1 = 0.02962 | 1000.96
277.12 K, m1 = 0.03964 | 1001.31
277.12 K, m1 = 0.04889 | 1001.62
277.12 K, m1 = 0.06028 | 1002.01
277.12 K, m1 = 0.06972 | 1002.32
277.12 K, m1 = 0.07961 | 1002.66
277.12 K, m1 = 0.0885 | 1002.97
277.12 K, m1 = 0.1008 | 1003.38
277.67 K, m1 = 0.02975 | 1000.98
277.67 K, m1 = 0.03917 | 1001.3
277.67 K, m1 = 0.05033 | 1001.68
277.67 K, m1 = 0.0596 | 1002
277.67 K, m1 = 0.07025 | 1002.36
277.67 K, m1 = 0.07948 | 1002.67
277.67 K, m1 = 0.085 | 1002.85
277.67 K, m1 = 0.09846 | 1003.32
278.12 K, m1 = 0.02966 | 1000.97
278.12 K, m1 = 0.04207 | 1001.38
278.12 K, m1 = 0.05006 | 1001.65
278.12 K, m1 = 0.06152 | 1002.04
278.12 K, m1 = 0.06869 | 1002.28
278.12 K, m1 = 0.0814 | 1002.71
278.12 K, m1 = 0.08635 | 1002.88
278.12 K, m1 = 0.09984 | 1003.33
278.65 K, m1 = 0.02951 | 1000.95
278.65 K, m1 = 0.04154 | 1001.35
278.65 K, m1 = 0.04986 | 1001.64
278.65 K, m1 = 0.05429 | 1001.78
278.65 K, m1 = 0.07168 | 1002.36
278.65 K, m1 = 0.08119 | 1002.67
278.65 K, m1 = 0.0895 | 1002.96
278.65 K, m1 = 0.09674 | 1003.2

CCC(N)C(=O)O (stereo not drawn) [(.+-.)-α-aminobutyric acid] + O
Details | mass density [kg/m3]
275.63 K, m1 = 0.03017 | 1000.84
275.63 K, m1 = 0.03851 | 1001.09
275.63 K, m1 = 0.04794 | 1001.36
275.63 K, m1 = 0.06041 | 1001.72
275.63 K, m1 = 0.072 | 1002.07
275.63 K, m1 = 0.07612 | 1002.18
275.63 K, m1 = 0.08971 | 1002.58
275.63 K, m1 = 0.0967 | 1002.78
276.13 K, m1 = 0.03035 | 1000.85
276.13 K, m1 = 0.03896 | 1001.1
276.13 K, m1 = 0.04967 | 1001.42
276.13 K, m1 = 0.05823 | 1001.67
276.13 K, m1 = 0.07075 | 1002.03
276.13 K, m1 = 0.08046 | 1002.31
276.13 K, m1 = 0.0901 | 1002.6
276.13 K, m1 = 0.0968 | 1002.78
276.69 K, m1 = 0.0256 | 1000.72
276.69 K, m1 = 0.03484 | 1000.99
276.69 K, m1 = 0.04383 | 1001.25
276.69 K, m1 = 0.05138 | 1001.47
276.69 K, m1 = 0.06131 | 1001.77
276.69 K, m1 = 0.06872 | 1001.99
276.69 K, m1 = 0.0783 | 1002.24
276.69 K, m1 = 0.08694 | 1002.51
277.12 K, m1 = 0.03035 | 1000.86
277.12 K, m1 = 0.03896 | 1001.12
277.12 K, m1 = 0.04967 | 1001.42
277.12 K, m1 = 0.05823 | 1001.68
277.12 K, m1 = 0.07075 | 1002.04
277.12 K, m1 = 0.08046 | 1002.31
277.12 K, m1 = 0.0901 | 1002.6
277.12 K, m1 = 0.0968 | 1002.79
277.67 K, m1 = 0.0256 | 1000.71
277.67 K, m1 = 0.03484 | 1000.99
277.67 K, m1 = 0.04383 | 1001.25
277.67 K, m1 = 0.05138 | 1001.47
277.67 K, m1 = 0.06131 | 1001.76
277.67 K, m1 = 0.06872 | 1001.99
277.67 K, m1 = 0.0783 | 1002.25
277.67 K, m1 = 0.08694 | 1002.51
278.12 K, m1 = 0.03122 | 1000.86
278.12 K, m1 = 0.04081 | 1001.16
278.12 K, m1 = 0.04913 | 1001.38
278.12 K, m1 = 0.05983 | 1001.72
278.12 K, m1 = 0.07098 | 1002.05
278.12 K, m1 = 0.08031 | 1002.3
278.12 K, m1 = 0.09051 | 1002.6
278.12 K, m1 = 0.09974 | 1002.85
278.65 K, m1 = 0.0312 | 1000.86
278.65 K, m1 = 0.04081 | 1001.12
278.65 K, m1 = 0.04913 | 1001.35
278.65 K, m1 = 0.05983 | 1001.67
278.65 K, m1 = 0.07098 | 1002
278.65 K, m1 = 0.08031 | 1002.27
278.65 K, m1 = 0.09051 | 1002.57
278.65 K, m1 = 0.0997 | 1002.85

CC(N)C(=O)O (stereo not drawn) [DL-2-aminopropanoic acid] + O
Details | mass density [kg/m3]
275.63 K, m1 = 0.0294 | 1000.85
275.63 K, m1 = 0.04005 | 1001.17
275.63 K, m1 = 0.04974 | 1001.47
275.63 K, m1 = 0.0592 | 1001.76
275.63 K, m1 = 0.0695 | 1002.07
275.63 K, m1 = 0.08475 | 1002.53
275.63 K, m1 = 0.0911 | 1002.72
275.63 K, m1 = 0.1019 | 1003.05
276.13 K, m1 = 0.03044 | 1000.88
276.13 K, m1 = 0.04034 | 1001.19
276.13 K, m1 = 0.04918 | 1001.46
276.13 K, m1 = 0.05989 | 1001.78
276.13 K, m1 = 0.07063 | 1002.11
276.13 K, m1 = 0.07952 | 1002.37
276.13 K, m1 = 0.09022 | 1002.69
276.13 K, m1 = 0.09952 | 1002.98
276.69 K, m1 = 0.03006 | 1000.88
276.69 K, m1 = 0.04009 | 1001.19
276.69 K, m1 = 0.04963 | 1001.48
276.69 K, m1 = 0.0606 | 1001.81
276.69 K, m1 = 0.0711 | 1002.13
276.69 K, m1 = 0.07938 | 1002.37
276.69 K, m1 = 0.08509 | 1002.54
276.69 K, m1 = 0.09839 | 1002.95
277.12 K, m1 = 0.03044 | 1000.89
277.12 K, m1 = 0.04034 | 1001.19
277.12 K, m1 = 0.0492 | 1001.46
277.12 K, m1 = 0.05989 | 1001.78
277.12 K, m1 = 0.07063 | 1002.1
277.12 K, m1 = 0.07952 | 1002.37
277.12 K, m1 = 0.09022 | 1002.7
277.12 K, m1 = 0.09952 | 1002.97
277.67 K, m1 = 0.02944 | 1000.85
277.67 K, m1 = 0.04005 | 1001.17
277.67 K, m1 = 0.04974 | 1001.46
277.67 K, m1 = 0.0592 | 1001.74
277.67 K, m1 = 0.0695 | 1002.06
277.67 K, m1 = 0.08475 | 1002.51
277.67 K, m1 = 0.0911 | 1002.7
277.67 K, m1 = 0.1019 | 1003.04
278.12 K, m1 = 0.03078 | 1000.9
278.12 K, m1 = 0.03875 | 1001.11
278.12 K, m1 = 0.04963 | 1001.45
278.12 K, m1 = 0.05968 | 1001.76
278.12 K, m1 = 0.0709 | 1002.09
278.12 K, m1 = 0.07928 | 1002.34
278.12 K, m1 = 0.09099 | 1002.69
278.12 K, m1 = 0.1006 | 1002.98
278.65 K, m1 = 0.03078 | 1000.89
278.65 K, m1 = 0.03875 | 1001.13
278.65 K, m1 = 0.04963 | 1001.45
278.65 K, m1 = 0.05968 | 1001.75
278.65 K, m1 = 0.0709 | 1002.09
278.65 K, m1 = 0.07928 | 1002.34
278.65 K, m1 = 0.09099 | 1002.68
278.65 K, m1 = 0.1006 | 1002.96
